Measurements taken from US12600734B2, “Photosensitizing dye” (The University of Tokyo, priority 2020, dated 2026).

Columns and labels:
[1] = protoporphyrin IX generated as a result of metabolizing 5-ALA in the cytoplasm; cited from earlier work
[2] = Singlet oxygen quantum yield (DPBF, light irradiation); assay type: physicochemical
Method: (§1) The absorption maximum of all of the substances was measured in DMSO.
The singlet oxygen quantum yield of PS1 was measured. […] This value was higher than the values of conventional photosensitizers, and thus, the usefulness of PS1 for photo dynamic therapy could be expected.

[3] = tested on: EGFR-overexpressing A431 cells; assay: Immunotoxin plus photochemical internalization (PCI), cell viability (CCK-8); assay type: cell-based; settings: A431, immunotoxin + PCI with the named photosensitizer + NIR
Method: After that, a new medium was added, and irradiation (6.1 mW/cm^2 for 60 min, 22 J/cm^2) with a near infrared light (700 to 1100 nm) was then carried out. Forty-eight hours after the irradiation, CCK-8 was added to the resultant, and the absorption at a wavelength of 450 nm was then measured using a plate reader, so that cell viability was measured (FIG. 8).
Using these photosensitizers, a cell experiment involving the combined use of addition of the immunotoxin and PCI was carried out.

[4] = Absorption spectrum of PS1 and common photosensitizers in DMSO; assay type: physicochemical
Method: as §1
The absorption spectrum of the synthesized PS1 was measured. […] In addition, absorption spectra were measured at different concentrations, and the absorption at a wavelength of 775 nm was then plotted to obtain a molar adsorption coefficient. As a result, the molar adsorption coefficient was 41000 (M^−1 cm^−1) (FIG. 2).

Row | Compound | absorption maximum (λab) [1] | singlet oxygen quantum yield ([2]; in a buffer aqueous solution (pH 7.4)) | photosensitization ability under near infrared light irradiation (reason given for no viability reduction) [3] | absorption maximum (region) [4] | singlet oxygen quantum yield ([2]; in DMSO)
1 | NCC(=O)CCC(=O)O [5-ALA, 5-aminolevulinic acid] | 405 nm | – | – | – | –
2 | CC1(C)C(/C=C/C=C/C=C/C=C2\N(CCCCS(=O)(=O)O)c3ccc4ccccc4c3C2(C)C)=[N+](CCCCS(=O)(=O)[O-])c2ccc3ccccc3c21 [Indocyanine green] | – | 0.12 | could not release a sufficient amount of singlet oxygen | in a near infrared region | –
3 | [Zn+2].c1ccc2c(c1)-c1nc-2nc2[n-]c(nc3nc([n-]c4nc(n1)-c1ccccc1-4)-c1ccccc1-3)c1ccccc21 [Zinc phthalocyanine] | – | – | photosensitization could not be performed | in a visible light region | high
